Tests used:
human PDHK2 (12-407) = molecular target: T1, human PDHK2 (12-407) (Homo sapiens, UniProt Q15119); assay: Isothermal titration calorimetry (ITC) binding; conditions: 30° C., pH 7.5
T1 construct: The human PDHK2 (12-407) was produced in E. coli; His-tag (cleaved yes); made in house; host or cells: E. coli
Method: Isothermal Titration Calorimetry
ITC measurements were performed with a VP-ITC micro calorimeter (Microcal, LLC/GE Healthcare Bio-Sciences AB, Uppsala, Sweden). In general titrations were performed by titrating the protein (50 μM) to the test compound (5 μM) in 12 μl injections. All binding experiments were carried out at 30° C. In general the test compounds were diluted form DMSO stock solutions into the measurement buffer with a maximum final concentration of 1% DMSO. The measurement buffer was 20 mM HEPES, 135 mM KCl, 1 mM TCEP, 2 mM MgCl2, 15 mM NaH2PO4, pH 7.5. The human PDHK2 (12-407) was produced in E. coli as his-tagged protein and purified by affinity chromatography. The tag was removed by side specific proteolysis. Before titration the protein buffer was changed to the measurement buffer containing the same DMSO concentration as the test compound dilution. ITC data analysis was performed using Origin 7 calorimetry software from the same supplier. For most measurements a binding model of one binding site was assumed. According to the applied mathematical model it is possible to calculate the binding constant (KA), the observed binding enthalpy (ΔH^obs) as well as the stoichiometry (N) of the formed complex. Preceding analysis the raw data was corrected for the heats of dilution by extrapolating from the saturation value from the end of titration. In order to allow for direct comparison between the respective experimental series and protein preparations the protein concentration was corrected by referencing titrations to a well behaved standard inhibitor. The apparent stoichiometry values defined the fraction of binding competent protein and compensated for relative errors in protein concentration measurements. This corrected protein concentration was used to set up ITC experiment series with test compounds. Any deviations from ideal 1:1 stoichiometry observed here were attributed to errors in compound concentration. This nominal compound concentration was corrected as well to achieve 1:1 stoichiometry in the fit.

PDHK2 = molecular target: T2, PDHK2 (Homo sapiens, UniProt Q15119); assay: Biochemical activity testing of PDHK2: PDC inactivation assay; conditions: human rec PDHK2, PDC from porcine heart, ATP 5 μM; read-out: IC50 PDHK2 (enzyme assay)
T2 construct: purchased Carna Bioscience
Description: Biochemical Activity Testing of PDHK2: PDC Inactivation Assay
The biochemical activity assay for PDHK2 is based on the inactivation of PDC through phosphorylation by PDHK2. The assay is run in two steps: the enzymatic PDHK2 reaction in which isolated PDC is phosphorylated by PDHK2 with ATP as co-substrate and the PDC activity assay in which pyruvate and NAD are converted to acetyl-CoA and NADH. The PDC activity correlates to the increase in NADH and thereby is detectable directly via the increasing fluorescence signal (Exc 340 nm, Em 450 nm). Inhibition of PDHK2 results in a lower phosphorylation status and thereby a less decrease in activity of PDC and a stronger increase in NADH fluorescence signal.
The PDC inactivation assay is performed in Greiner 384-well microtiter plates and is used for high throughput screen. 4 μl of PDHK2 (human, rec, Carna Bioscience, 10 ng/μl-137 nM final concentration) and PDC (isolated from porcine heart, Sigma-Aldrich, 20 mU/ml final concentration) are incubated in the absence or presence of the test compound (10 dilution concentrations) for 30 min at room temperature in kinase buffer (15 mM potassium phosphate buffer, pH 7.0, 60 mM KCl, 1.5 mM DTT, 2.5 mM MgCl2, 0.0125% (w/v) BSA, 0.125% Pluronic F-68). The kinase reaction is started by the addition of 4 μl ATP substrate solution (fc 5 μM in kinase buffer). After 30 min incubation at 37° C. 40 μl of PDC reaction solution (100 mM Tris/HCl, pH 7.8, 0.5 mM EDTA, 1 mM MgCl2, 50 mM NaF, 0.25 mM Coenzyme A, 5 mM pyruvate, 1 mM NAD, 5 mM DTT, […] thiamine pyrophosphate) is added. The first fluorescence measurement is performed on a Perkin Elmer Envision (Exc 340 nm, Em 450 nm). The reaction is incubated for 45 min at room temperature. Afterwards a second fluorescence measurement is performed and the PDC activity is calculated by the difference between both measurements. As full value for the PDHK2 assay the inhibitor-free PDHK2 reaction is used. The pharmacological zero value used is DCA (Sigma-Aldrich) in a final concentration of 3 mM. The inhibitory values (IC50) were determined using either the program Symyx Assay Explorer® or Condosseo® from GeneData.

Row | SMILES | Kd (human PDHK2 (12-407)) [nM] | IC50 (PDHK2) [nM]
1 | C[C@@](O)(C(=O)N1CCC(c2cnnn2-c2ccc(Cl)cc2)CC1)C(F)(F)F [Compound A58, (R)-1-{4-[3-(4-Chloro-phenyl)-3H-[1,2,3]triazol-4-yl]-piperidin-1-yl}-3,3,3-trifluoro-2-hydroxy-2-methyl-propan-1-one] | 300 to 3000 | 300 to 3000
2 | Cc1ccc(-n2nncc2C2CCN(C(=O)[C@@](C)(O)C(F)(F)F)CC2)c(F)c1 [Compound A60] | 300 to 3000 | 300 to 3000
3 | C[C@@](O)(C(=O)N1CCC(n2nccc2-c2ccccc2)CC1)C(F)(F)F [Compound A66, (R)-3,3,3-Trifluoro-2-hydroxy-2-methyl-1-[4-(5-phenyl-pyrazol-1-yl)-piperidin-1-yl]-propan-1-one] | 300 to 3000 | 300 to 3000
4 | C[C@@](O)(C(=O)N1CCC(c2nccn2-c2ccc(F)cc2)CC1)C(F)(F)F [Compound A67, (R)-3,3,3-Trifluoro-1-{4-[1-(4-fluoro-phenyl)-1H-imidazol-2-yl]-piperidin-1-yl}-2-hydroxy-2-methyl-propan-1-one] | 300 to 3000 | 300 to 3000
5 | Cc1ccc(-n2ccnc2C2CCN(C(=O)[C@@](C)(O)C(F)(F)F)CC2)cc1 [Compound A68, (R)-3,3,3-Trifluoro-2-hydroxy-2-methyl-1-[4-(1-p-tolyl-1H-imidazol-2-yl)piperidin-1-yl]-propan-1-one] | 300 to 3000 | 300 to 3000
6 | COc1ccc(-n2ccnc2C2CCN(C(=O)[C@@](C)(O)C(F)(F)F)CC2)cc1 [Compound A70, (R)-3,3,3-Trifluoro-2-hydroxy-1-{4-[1-(4-methoxy-phenyl)-1H-imidazol-2-yl]-piperidin-1-yl}-2-methyl-propan-1-one] | 300 to 3000 | 300 to 3000
7 | C[C@@](O)(C(=O)N1CCC(c2nncn2-c2ccc(F)cc2)CC1)C(F)(F)F [Compound A71, (R)-3,3,3-Trifluoro-1-{4-[4-(4-fluoro-phenyl)-4H-[1,2,4]triazol-3-yl]-piperidin-1-yl}-2-hydroxy-2-methyl-propan-1-one] | 300 to 3000 | 300 to 3000
8 | C[C@@](O)(C(=O)N1CCC(c2nncn2-c2ccccc2)CC1)C(F)(F)F [Compound A72, (R)-3,3,3-Trifluoro-2-hydroxy-2-methyl-1-[4-(4-phenyl-4H-[1,2,4]triazol-3-yl)piperidin-1-yl]-propan-1-one] | 300 to 3000 | 300 to 3000
9 | C[C@@](O)(C(=O)N1CCC(c2ccnn2C2CC2)CC1)C(F)(F)F [Compound A74, (R)-1-[4-(2-Cyclopropyl-2H-pyrazol-3-yl)-1-piperidyl]-3,3,3-trifluoro-2-hydroxy-2-methyl-propan-1-one] | < 300 | 300 to 3000
10 | COc1ccc(-n2ccc(C3CCN(C(=O)[C@@](C)(O)C(F)(F)F)CC3)n2)nn1 [Compound A105, (R)-3,3,3-Trifluoro-2-hydroxy-1-{4-[1-(6-methoxy-pyridazin-3-yl)-1H-pyrazol-3-yl]-piperidin-1-yl}-2-methyl-propan-1-one] | 300 to 3000 | 300 to 3000
11 | C[C@H]1CN(C(=O)[C@@](C)(O)C(F)(F)F)CC[C@H]1c1ccnn1-c1ccc(F)cc1 [Compound A108, (R)-3,3,3-Trifluoro-1-{(3R,4R)-4-[2-(4-fluoro-phenyl)-2H-pyrazol-3-yl]-3-methyl-piperidin-1-yl}-2-hydroxy-2-methyl-propan-1-one] | 300 to 3000 | 300 to 3000
12 | C[C@@](O)(C(=O)N1CCC(c2ccnn2-c2ccon2)CC1)C(F)(F)F [Compound A122, (R)-3,3,3-Trifluoro-2-hydroxy-1-[4-(2-isoxazol-3-yl-2H-pyrazol-3-yl)-piperidin-1-yl]-2-methyl-propan-1-one] | 300 to 3000 | 300 to 3000

Reference: patent US9751861B2, “N1-(3,3,3-trifluoro-2-hydroxo-2-methylpropionyl)-piperidine derivatives as inhibitors of pyruvate dehydrogenase kinase” (MERCK PATENT GMBH, priority 2013, dated 2017)
